US12252524B2, “GIP/GLP1 co-agonist compounds” (Eli Lilly and Company, priority 2018, dated 2025)
Numbered stars: 1 amine (or outer) side, 2 acyl side, 3 side chain; on linkers, the order of the positions; unused ones are H or OH. Square brackets hold non-standard residues; d marks the D form. Side chains are listed from the residue outwards. Peptide text beside a SMILES is read from it. * marks the point of attachment. C20 diacid = O=C(O)CCCCCCCCCCCCCCCCCCC(=O)*; C18 diacid = O=C(O)CCCCCCCCCCCCCCCCC(=O)*; αMePhe(2-F) = C[C@](N)(Cc1ccccc1F)C(=O)O; γGlu = O=C(O)[C@H](CCC(=O)[*:2])N[*:1]; αMeL = CC(C)C[C@](C)(N)C(=O)O; αMeK = C[C@](N)(CCCCN)C(=O)O; AEEA = NCCOCCOCC(=O)O; Aib = CC(C)(N)C(=O)O

Legend:
human Gcg receptor = biological target: T1, human Gcg receptor (Homo sapiens, UniProt P47871); assay: [125I]-Glucagon binding (SPA), human Gcg receptor; conditions: read-out: hGLcgR Ki, nM (SEM, n)
T1 construct: expressed in transfected cells; crude membranes
In short: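 Crude membranes from cells expressing the receptor, prepared by hypotonic lysis in 50 mM Tris HCl pH 7.5 with protease inhibitors, homogenization and differential centrifugation, were used in a WGA-bead SPA. Binding buffer: 25 mM HEPES pH 7.4, 2.5 mM CaCl2, 1 mM MgCl2, bacitracin, Tween-20.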

human GIP receptor = biological target: T2, human GIP receptor (Homo sapiens, UniProt P48546); assay: [125I]-GIP binding (SPA), human GIP receptor; conditions: read-out: hGIPR Ki, nM (SEM, n)
T2 construct: expressed in transfected cells; crude membranes
T2 sequence (P48546 22-466): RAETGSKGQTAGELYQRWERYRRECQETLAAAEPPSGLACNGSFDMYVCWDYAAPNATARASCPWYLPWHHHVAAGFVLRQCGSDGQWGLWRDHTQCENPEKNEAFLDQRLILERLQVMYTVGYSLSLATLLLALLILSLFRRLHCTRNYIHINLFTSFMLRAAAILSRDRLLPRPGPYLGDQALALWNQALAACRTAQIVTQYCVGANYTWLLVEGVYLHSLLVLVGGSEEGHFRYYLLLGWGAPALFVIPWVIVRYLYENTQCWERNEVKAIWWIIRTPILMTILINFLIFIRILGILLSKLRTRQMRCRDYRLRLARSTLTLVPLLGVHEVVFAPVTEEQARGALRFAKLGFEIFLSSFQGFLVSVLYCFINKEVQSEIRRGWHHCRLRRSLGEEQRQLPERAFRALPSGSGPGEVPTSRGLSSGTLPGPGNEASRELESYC

[1] = biological target: human GLP-1 receptor (GLP-1R) (Homo sapiens, UniProt P43220); assay: cAMP pharmacological functional assay in presence of casein, hGLP-1R; assay type: cell-based; conditions: HEK293 cells expressing hGLP-1R, 0.1% Casein, geometric mean; read-out: hGLP1R cAMP Rel EC50 nM (SEM, n)
[2] = biological target: T3, gastric inhibitory peptide receptor (GIPR) (Homo sapiens, UniProt P48546); assay: cAMP pharmacological functional assay in presence of casein, hGIPR; assay type: cell-based; conditions: HEK293 cells expressing hGIPR, 0.1% Casein, geometric mean; read-out: hGIPR cAMP Rel EC50 nM (SEM, n)
T3 sequence (P48546 22-466): T2 sequence (P48546 22-466)

human GLP-1R = human GLP-1R (Homo sapiens, UniProt P43220); assay: [125I]-GLP-1 binding (SPA), human GLP-1 receptor; set-up: expressed in transfected cells; crude membranes; conditions: read-out: hGLP1R Ki, (nM) (SEM, n)
In short: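 Frozen cell pellets are lysed on ice in hypotonic Tris buffer, pH 7.5, homogenized, and centrifuged to a membrane pellet resuspended at about 1 to 3 mg/mL. Binding is then measured in HEPES-based buffer at pH 7.4, and curves are fitted to give IC50 and Ki.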

T1 sequence (P47871 26-477): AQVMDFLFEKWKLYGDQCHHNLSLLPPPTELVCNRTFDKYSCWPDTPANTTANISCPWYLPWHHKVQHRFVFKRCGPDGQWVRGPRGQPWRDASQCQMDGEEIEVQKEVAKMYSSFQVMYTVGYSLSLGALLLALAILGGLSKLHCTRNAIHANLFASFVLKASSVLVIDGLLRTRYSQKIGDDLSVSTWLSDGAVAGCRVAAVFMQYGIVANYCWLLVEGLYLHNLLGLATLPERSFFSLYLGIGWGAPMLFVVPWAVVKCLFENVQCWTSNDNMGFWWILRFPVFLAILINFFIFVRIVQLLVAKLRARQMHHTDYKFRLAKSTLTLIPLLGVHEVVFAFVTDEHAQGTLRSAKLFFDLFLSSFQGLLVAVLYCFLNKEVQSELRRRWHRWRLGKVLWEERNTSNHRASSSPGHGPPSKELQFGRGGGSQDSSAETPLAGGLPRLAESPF
Chain of human GLP-1R (P43220 24-463): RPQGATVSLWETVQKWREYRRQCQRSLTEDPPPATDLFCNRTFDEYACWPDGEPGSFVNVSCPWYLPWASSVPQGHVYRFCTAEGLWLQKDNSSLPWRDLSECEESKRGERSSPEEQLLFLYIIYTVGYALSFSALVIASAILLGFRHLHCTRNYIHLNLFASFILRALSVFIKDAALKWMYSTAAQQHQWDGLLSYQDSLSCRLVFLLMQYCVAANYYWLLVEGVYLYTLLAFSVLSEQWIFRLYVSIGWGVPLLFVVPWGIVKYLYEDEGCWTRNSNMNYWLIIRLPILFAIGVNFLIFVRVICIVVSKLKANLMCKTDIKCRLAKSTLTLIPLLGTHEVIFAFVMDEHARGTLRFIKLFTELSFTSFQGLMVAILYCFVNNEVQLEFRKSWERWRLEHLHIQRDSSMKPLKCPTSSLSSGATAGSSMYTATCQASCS
Chain of human GLP-1 receptor (GLP-1R) (P43220 24-463): as above

SMILES | Ki (human Gcg receptor) | Ki (human GIP receptor) | EC50 [1] | EC50 [2] | Ki (human GLP-1R)
CC[C@H](C)[C@H](NC(=O)[C@H](CC(C)C)NC(=O)[C@H](Cc1ccc(O)cc1)NC(=O)[C@H](CCC(=O)O)NC(=O)[C@@H](NC(=O)[C@H](Cc1ccccc1)NC(=O)[C@H](C)NC(=O)C(C)(C)NC(=O)[C@H](CCC(N)=O)NC(=O)[C@H](C)NC(=O)[C@H](CCCCNC(=O)COCCOCCNC(=O)COCCOCCNC(=O)CC[C@H](NC(=O)CCCCCCCCCCCCCCCCCCC(=O)O)C(=O)O)NC(=O)[C@H](CCC(=O)O)NC(=O)[C@H](CC(=O)O)NC(=O)[C@H](CC(C)C)NC(=O)[C@](C)(CC(C)C)NC(=O)[C@@H](NC(=O)[C@H](CO)NC(=O)[C@H](Cc1ccc(O)cc1)NC(=O)[C@H](CC(=O)O)NC(=O)[C@H](CO)NC(=O)[C@@H](NC(=O)[C@H](Cc1ccccc1)NC(=O)[C@@H](NC(=O)CNC(=O)[C@H](CCC(=O)O)NC(=O)C(C)(C)NC(=O)[C@@H](N)Cc1ccc(O)cc1)[C@@H](C)O)[C@@H](C)O)[C@@H](C)CC)[C@@H](C)CC)C(=O)N[C@@H](CCC(=O)O)C(=O)NCC(=O)NCC(=O)N1CCC[C@H]1C(=O)N[C@@H](CO)C(=O)N[C@@H](CO)C(=O)NCC(=O)N[C@@H](C)C(=O)N1CCC[C@H]1C(=O)N1CCC[C@H]1C(=O)N1CCC[C@H]1C(=O)N[C@@H](CO)C(N)=O [Example 59] (H-Y[Aib]EGTFTSDYSI[αMeL]LDEK([AEEA-AEEA-γGlu-C20 diacid])AQ[Aib]AFIEYLIEGGPSSGAPPPS-NH2) | 292 nM | 0.136 nM | 0.084 nM | 0.0922 nM | 8.2 nM
CC[C@H](C)[C@H](NC(=O)[C@H](Cc1ccccc1)NC(=O)[C@H](C)NC(=O)[C@](C)(CCCCN)NC(=O)[C@H](CCC(N)=O)NC(=O)[C@H](C)NC(=O)[C@H](CCCCNC(=O)COCCOCCNC(=O)COCCOCCNC(=O)CC[C@H](NC(=O)CCCCCCCCCCCCCCCCCCC(=O)O)C(=O)O)NC(=O)[C@H](CCC(=O)O)NC(=O)[C@H](CC(=O)O)NC(=O)[C@H](CC(C)C)NC(=O)[C@](C)(CC(C)C)NC(=O)[C@@H](NC(=O)[C@H](CO)NC(=O)[C@H](Cc1ccc(O)cc1)NC(=O)[C@H](CC(=O)O)NC(=O)[C@H](CO)NC(=O)[C@@H](NC(=O)[C@H](Cc1ccccc1)NC(=O)[C@@H](NC(=O)CNC(=O)[C@H](CCC(=O)O)NC(=O)C(C)(C)NC(=O)[C@@H](N)Cc1ccc(O)cc1)[C@@H](C)O)[C@@H](C)O)[C@@H](C)CC)C(=O)N[C@@H](CCC(=O)O)C(=O)N[C@@H](Cc1ccc(O)cc1)C(=O)N[C@@H](CC(C)C)C(=O)N[C@@H](CC(C)C)C(=O)N[C@@H](CCC(=O)O)C(=O)NC(C)(C)C(=O)NCC(=O)N1CCC[C@H]1C(=O)N[C@@H](CO)C(=O)N[C@@H](CO)C(=O)NCC(=O)N[C@@H](C)C(=O)N1CCC[C@H]1C(=O)N1CCC[C@H]1C(=O)N1CCC[C@H]1C(=O)N[C@@H](CO)C(N)=O [Example 22] (H-Y[Aib]EGTFTSDYSI[αMeL]LDEK([AEEA-AEEA-γGlu-C20 diacid])AQ[αMeK]AFIEYLLE[Aib]GPSSGAPPPS-NH2; N-terminus assumed) | 53.4 nM | 0.624 nM | 0.206 nM | 0.0842 nM | 23.1 nM
CC[C@H](C)[C@H](NC(=O)[C@H](CC(C)C)NC(=O)[C@H](Cc1ccc(O)cc1)NC(=O)C(C)(C)NC(=O)[C@@H](NC(=O)[C@H](Cc1ccccc1)NC(=O)[C@H](CCC(=O)O)NC(=O)C(C)(C)NC(=O)[C@H](CCC(N)=O)NC(=O)[C@H](C)NC(=O)[C@H](CCCCNC(=O)COCCOCCNC(=O)COCCOCCNC(=O)CC[C@H](NC(=O)CCCCCCCCCCCCCCCCCCC(=O)O)C(=O)O)NC(=O)[C@H](CCC(=O)O)NC(=O)[C@H](CC(=O)O)NC(=O)[C@H](CC(C)C)NC(=O)[C@](C)(CC(C)C)NC(=O)[C@@H](NC(=O)[C@H](CO)NC(=O)[C@H](Cc1ccc(O)cc1)NC(=O)[C@H](CC(=O)O)NC(=O)[C@H](CO)NC(=O)[C@@H](NC(=O)[C@](C)(Cc1ccccc1F)NC(=O)[C@@H](NC(=O)CNC(=O)[C@H](CCC(=O)O)NC(=O)C(C)(C)NC(=O)[C@@H](N)Cc1ccc(O)cc1)[C@@H](C)O)[C@@H](C)O)[C@@H](C)CC)[C@@H](C)CC)C(=O)N[C@@H](CCC(=O)O)C(=O)NCC(=O)NCC(=O)N1CCC[C@H]1C(=O)N[C@@H](CO)C(=O)N[C@@H](CO)C(=O)NCC(=O)N[C@@H](C)C(=O)N1CCC[C@H]1C(=O)N1CCC[C@H]1C(=O)N1CCC[C@H]1C(=O)N[C@@H](CO)C(N)=O [Example 152] (H-Y[Aib]EGT[αMePhe(2-F)]TSDYSI[αMeL]LDEK([AEEA-AEEA-γGlu-C20 diacid])AQ[Aib]EFI[Aib]YLIEGGPSSGAPPPS-NH2) | 93.4 nM | 0.117 nM | 0.0915 nM | 0.0504 nM | 48 nM
CC[C@H](C)[C@H](NC(=O)[C@H](CC(C)C)NC(=O)[C@H](Cc1ccc(O)cc1)NC(=O)[C@@H](CCC(=O)O)NC(=O)[C@@H](NC(=O)[C@H](Cc1ccccc1)NC(=O)[C@H](CCC(=O)O)NC(=O)C(C)(C)NC(=O)[C@H](CCC(N)=O)NC(=O)[C@H](C)NC(=O)[C@H](CCCCNC(=O)COCCOCCNC(=O)COCCOCCNC(=O)CC[C@H](NC(=O)CCCCCCCCCCCCCCCCC(=O)O)C(=O)O)NC(=O)[C@H](CCCCN)NC(=O)[C@H](CC(=O)O)NC(=O)[C@H](CC(C)C)NC(=O)C(C)(CC(C)C)NC(=O)[C@@H](NC(=O)[C@H](CO)NC(=O)[C@H](Cc1ccc(O)cc1)NC(=O)[C@H](CC(=O)O)NC(=O)[C@H](CO)NC(=O)[C@@H](NC(=O)C(C)(Cc1ccccc1F)NC(=O)[C@@H](NC(=O)CNC(=O)[C@H](CCC(=O)O)NC(=O)C(C)(C)NC(=O)[C@@H](N)Cc1ccc(O)cc1)[C@@H](C)O)[C@@H](C)O)[C@@H](C)CC)[C@@H](C)CC)C(=O)N[C@@H](CCC(=O)O)C(=O)NCC(=O)NCC(=O)N1CCC[C@H]1C(=O)N[C@@H](CO)C(=O)N[C@@H](CO)C(=O)NCC(=O)N[C@@H](C)C(=O)N1CCC[C@H]1C(=O)N1CCC[C@H]1C(=O)N1CCC[C@H]1C(=O)N[C@@H](CO)C(N)=O (stereo partly drawn) [Example 231] | 440 nM | 0.0394 nM | 0.0611 nM | 0.0253 nM | 3.03 nM
CC[C@H](C)[C@H](NC(=O)[C@H](CC(C)C)NC(=O)[C@H](Cc1ccc(O)cc1)NC(=O)[C@H](CCC(=O)O)NC(=O)[C@@H](NC(=O)[C@H](Cc1ccccc1)NC(=O)[C@H](C)NC(=O)C(C)(C)NC(=O)[C@H](CCC(N)=O)NC(=O)[C@H](C)NC(=O)[C@H](CCCCNC(=O)COCCOCCNC(=O)COCCOCCNC(=O)CC[C@H](NC(=O)CCCCCCCCCCCCCCCCCCC(=O)O)C(=O)O)NC(=O)[C@H](CCCCN)NC(=O)[C@H](CC(=O)O)NC(=O)[C@H](CC(C)C)NC(=O)[C@H](CC(C)C)NC(=O)[C@@H](NC(=O)[C@H](CO)NC(=O)[C@H](Cc1ccc(O)cc1)NC(=O)[C@H](CC(=O)O)NC(=O)[C@H](CO)NC(=O)[C@@H](NC(=O)[C@H](Cc1ccccc1)NC(=O)[C@@H](NC(=O)CNC(=O)[C@H](CCC(=O)O)NC(=O)C(C)(C)NC(=O)[C@@H](N)Cc1ccc(O)cc1)[C@@H](C)O)[C@@H](C)O)[C@@H](C)CC)[C@@H](C)CC)C(=O)N[C@@H](CCC(=O)O)C(=O)NCC(=O)NCC(=O)N1CCC[C@H]1C(=O)N[C@@H](CO)C(=O)N[C@@H](CO)C(=O)NCC(N)=O [Example 50] (H-Y[Aib]EGTFTSDYSILLDKK([AEEA-AEEA-γGlu-C20 diacid])AQ[Aib]AFIEYLIEGGPSSG-NH2) | 220 nM | 0.0568 nM | 0.0961 nM | 0.0794 nM | 4.71 nM
CC[C@H](C)[C@H](NC(=O)[C@H](CC(C)C)NC(=O)[C@H](Cc1ccc(O)cc1)NC(=O)[C@@H](CCC(=O)O)NC(=O)[C@@H](NC(=O)[C@H](Cc1ccccc1)NC(=O)[C@H](CCC(=O)O)NC(=O)C(C)(C)NC(=O)[C@H](CCC(N)=O)NC(=O)[C@H](C)NC(=O)[C@H](CCCCNC(=O)COCCOCCNC(=O)COCCOCCNC(=O)CC[C@H](NC(=O)CCCCCCCCCCCCCCCCC(=O)O)C(=O)O)NC(=O)[C@H](CCC(=O)O)NC(=O)[C@H](CC(=O)O)NC(=O)[C@H](CC(C)C)NC(=O)[C@](C)(CC(C)C)NC(=O)[C@@H](NC(=O)[C@H](CO)NC(=O)[C@H](Cc1ccc(O)cc1)NC(=O)[C@H](CC(=O)O)NC(=O)[C@H](CO)NC(=O)[C@@H](NC(=O)[C@](C)(Cc1ccccc1F)NC(=O)[C@@H](NC(=O)CNC(=O)[C@H](CCC(=O)O)NC(=O)C(C)(C)NC(=O)[C@@H](N)Cc1ccc(O)cc1)[C@@H](C)O)[C@@H](C)O)[C@@H](C)CC)[C@@H](C)CC)C(=O)N[C@@H](CCC(=O)O)C(=O)NCC(=O)NCC(N)=O [Example 220] (H-Y[Aib]EGT[αMePhe(2-F)]TSDYSI[αMeL]LDEK([AEEA-AEEA-γGlu-C18 diacid])AQ[Aib]EFI[dE]YLIEGG-NH2; N-terminus assumed) | 377 nM | 0.0919 nM | 0.0312 nM | 0.0315 nM | 2.71 nM
